Experiments:
gastric erosions = assay: gastric irritancy in starved rats, 1 hour contact time; assay type: in vivo, rat; conditions: rats fasted 18 hr
Description: When tested in starved rats (18 hr. fasted) with a 1 hour contact time the following results were obtained:
*Mixture made from dry compounds
**Constituents dosed as solutions

[1] = test system: phenylquinone induced writhing; assay: phenylquinone induced writhing in the mouse (analgesic effects); assay type: in vivo; conditions: dose in terms of acetyl salicylate content, mixture at 2:1 ratio of equivalents, read-out: ED50 (analgesic effect)
Description: Sodium acetyl salicylate and mixtures of sodium acetyl salicylate and ferrous sulphate (2:1 ratio of equivalents) were tested against phenylquinone induced writhing in the mouse. Dose responses were plotted in terms of acetyl salicylate content and the following ED50 values obtained: […]

Row | Compound | % incidence gastric erosions (gastric erosions; dose 160 mg/kg) | % incidence gastric erosions (gastric erosions; dose 338 mg/kg) | ED50 [1] | % incidence gastric erosions (gastric erosions; dose 100 mg/kg)
1 | CC(=O)Oc1ccccc1C(=O)O [Sodium acetyl salicylate] | 88% | 75% | 56 mg/kg | –
2 | CC(=O)Oc1ccccc1C(=O)O [Calcium acetyl salicylate] | – | – | – | 25%
